# Molecular target: T1, Bcl-2 protein (Recombinant Human Bcl-2 Protein) (Homo sapiens, UniProt P10415)
# T1 construct: purchased Novus NBP2-34889
# Experiment: Binding evaluation of mixture library compounds to Bcl-2 using AS-MS (affinity selection mass spectrometry)
# Details: AS-MS, mixture of 1200 compounds, Bcl-2, ASMS Ratio(%)=(A−C)/B×100; for ASMS ratio (%) n = 1: replicate n = 1; for ASMS ratio (%) n = 2: replicate n = 2
# In short: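 Affinity selection MS: Bcl-2 20 μM + 1200-cpd mixture, […]/cpd, Tris pH 7.4 buffer w/ Tween-20, DTT; 1 h 23° C dark; P-2 spin SEC; MeCN/MeOH extraction; RP LC/MS. ASMS Ratio(%) = (A−C)/B×100.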
# T1 sequence (P10415 whole entry): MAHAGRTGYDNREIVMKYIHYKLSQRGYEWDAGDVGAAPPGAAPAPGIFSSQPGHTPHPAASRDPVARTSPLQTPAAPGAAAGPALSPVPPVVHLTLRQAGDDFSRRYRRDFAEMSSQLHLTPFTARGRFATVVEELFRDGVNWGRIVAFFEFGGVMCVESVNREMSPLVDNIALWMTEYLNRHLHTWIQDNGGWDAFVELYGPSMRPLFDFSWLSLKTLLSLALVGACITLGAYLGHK
smiles,measurement,value
"CCOc1cncc(-c2cnn(-c3cc(C(=O)N4CCN(c5ccc(C(=O)NCC(F)(F)F)cc5)CC4)cc(C(F)(F)F)c3)c2)c1 [B1K044-01, 4-[4-[3-[4-(5-Ethoxypyridin-3-yl)pyrazol-1-yl]-5-(trifluoromethyl)benzoyl]piperazin-1-yl]-N-(2,2,2-trifluoroethyl)benzamide]",ASMS ratio (%) n = 1,2.6%
same,ASMS ratio (%) n = 2,1.0%
"CCOc1cccc(-c2ccccc2CN2CCN(c3ccc(C(=O)NCC(F)(F)F)cc3)CC2)c1 [B1K045-01, 4-[4-[[2-(3-Ethoxyphenyl)phenyl]methyl]piperazin-1-yl]-N-(2,2,2-trifluoroethyl)benzamide]",ASMS ratio (%) n = 1,1.5%
same,ASMS ratio (%) n = 2,−0.1%
"CCOc1cncc(-c2ccccc2CN2CCN(c3ccc(C(=O)NCC(F)(F)F)cc3)CC2)c1 [B1K046-01, 4-[4-[[2-(5-Ethoxypyridin-3-yl)phenyl]methyl]piperazin-1-yl]-N-(2,2,2-trifluoroethyl)benzamide]",ASMS ratio (%) n = 1,−0.1%
same,ASMS ratio (%) n = 2,0.5%
CCOc1cccc(-c2ccc(CN3CCN(c4ccc(C(=O)NCC(F)(F)F)cc4)CC3)cc2C)c1 [B1K047-01],ASMS ratio (%) n = 1,3.3%
same,ASMS ratio (%) n = 2,0.5%
"CCOc1cncc(-c2ccc(CN3CCN(c4ccc(C(=O)NCC(F)(F)F)cc4)CC3)cc2C)c1 [B1K048-01, 4-[4-[[4-(5-Ethoxypyridin-3-yl)-3-methylphenyl]methyl]piperazin-1-yl]-N-(2,2,2-trifluoroethyl)benzamide]",ASMS ratio (%) n = 1,0.1%
same,ASMS ratio (%) n = 2,1.2%
"CCOc1cccc(-c2ccc(CN3CCN(c4ccc(C(=O)NCC(F)(F)F)cc4)CC3)c(CC)c2)c1 [B1K049-01, 4-[4-[[4-(3-Ethoxyphenyl)-2-ethylphenyl]methyl]piperazin-1-yl]-N-(2,2,2-trifluoroethyl)benzamide]",ASMS ratio (%) n = 1,−3.3%
same,ASMS ratio (%) n = 2,1.5%
CCOc1cncc(-c2ccc(CN3CCN(c4ccc(C(=O)NCC(F)(F)F)cc4)CC3)c(CC)c2)c1 [B1K050-01],ASMS ratio (%) n = 1,0.0%
same,ASMS ratio (%) n = 2,0.0%
"CCOc1cccc(-c2ccc(CN3CCN(c4ccc(C(=O)NCC(F)(F)F)cc4)CC3)cc2F)c1 [B1K051-01, 4-[4-[[4-(3-Ethoxyphenyl)-3-fluorophenyl]methyl]piperazin-1-yl]-N-(2,2,2-trifluoroethyl)benzamide]",ASMS ratio (%) n = 1,2.8%
same,ASMS ratio (%) n = 2,2.0%
"CCOc1cncc(-c2ccc(CN3CCN(c4ccc(C(=O)NCC(F)(F)F)cc4)CC3)cc2F)c1 [B1K052-01, 4-[4-[[4-(5-Ethoxypyridin-3-yl)-3-fluorophenyl]methyl]piperazin-1-yl]-N-(2,2,2-trifluoroethyl)benzamide]",ASMS ratio (%) n = 1,−3.3%
same,ASMS ratio (%) n = 2,0.5%
CCOc1cccc(-c2ccc(CN3CCN(c4ccc(C(=O)NCC(F)(F)F)cc4)CC3)c(OC)c2)c1 [B1K053-01],ASMS ratio (%) n = 1,−0.5%
same,ASMS ratio (%) n = 2,−3.3%
"CCOc1cncc(-c2ccc(CN3CCN(c4ccc(C(=O)NCC(F)(F)F)cc4)CC3)c(OC)c2)c1 [B1K054-01, 4-[4-[[4-(5-Ethoxypyridin-3-yl)-2-methoxyphenyl]methyl]piperazin-1-yl]-N-(2,2,2-trifluoroethyl)benzamide]",ASMS ratio (%) n = 1,0.0%
same,ASMS ratio (%) n = 2,0.0%
"CCOc1cccc(-c2cc(CN3CCN(c4ccc(C(=O)NCC(F)(F)F)cc4)CC3)cc(OCC)c2)c1 [B1K055-01, 4-[4-[[3-Ethoxy-5-(3-ethoxyphenyl)phenyl]methyl]piperazin-1-yl]-N-(2,2,2-trifluoroethyl)benzamide]",ASMS ratio (%) n = 1,−0.8%
same,ASMS ratio (%) n = 2,0.0%
"CCOc1cncc(-c2cc(CN3CCN(c4ccc(C(=O)NCC(F)(F)F)cc4)CC3)cc(OCC)c2)c1 [B1K056-01, 4-[4-[[3-Ethoxy-5-(5-ethoxypyridin-3-yl)phenyl]methyl]piperazin-1-yl]-N-(2,2,2-trifluoroethyl)benzamide]",ASMS ratio (%) n = 1,3.3%
same,ASMS ratio (%) n = 2,0.2%
"CCOc1cccc(-c2cc(CN3CCN(c4ccc(C(=O)NCC(F)(F)F)cc4)CC3)cc(OC(C)C)c2)c1 [B1K057-01, 4-[4-[[3-(3-Ethoxyphenyl)-5-propan-2-yloxyphenyl]methyl]piperazin-1-yl]-N-(2,2,2-trifluoroethyl)benzamide]",ASMS ratio (%) n = 1,1.0%
same,ASMS ratio (%) n = 2,−2.6%
"CCOc1cncc(-c2cc(CN3CCN(c4ccc(C(=O)NCC(F)(F)F)cc4)CC3)cc(OC(C)C)c2)c1 [B1K058-01, 4-[4-[[3-(5-Ethoxypyridin-3-yl)-5-propan-2-yloxyphenyl]methyl]piperazin-1-yl]-N-(2,2,2-trifluoroethyl)benzamide]",ASMS ratio (%) n = 1,1.3%
same,ASMS ratio (%) n = 2,0.1%
CCOc1cccc(-c2cc(OC)c(CN3CCN(c4ccc(C(=O)NCC(F)(F)F)cc4)CC3)c(OC)c2)c1 [B1K059-01],ASMS ratio (%) n = 1,3.0%
same,ASMS ratio (%) n = 2,−1.9%
CCOc1cncc(-c2cc(OC)c(CN3CCN(c4ccc(C(=O)NCC(F)(F)F)cc4)CC3)c(OC)c2)c1 [B1K060-01],ASMS ratio (%) n = 1,0.0%
same,ASMS ratio (%) n = 2,0.0%
"CCOc1cccc(-c2cc(CN3CCN(c4ccc(C(=O)NCC(F)(F)F)cc4)CC3)cc(C(F)(F)F)c2)c1 [B1K061-01, 4-[4-[[3-(3-Ethoxyphenyl)-5-(trifluoromethyl)phenyl]methyl]piperazin-1-yl]-N-(2,2,2-trifluoroethyl)benzamide]",ASMS ratio (%) n = 1,2.8%
same,ASMS ratio (%) n = 2,−1.3%
"CCOc1cncc(-c2cc(CN3CCN(c4ccc(C(=O)NCC(F)(F)F)cc4)CC3)cc(C(F)(F)F)c2)c1 [B1K062-01, 4-[4-[[3-(5-Ethoxypyridin-3-yl)-5-(trifluoromethyl)phenyl]methyl]piperazin-1-yl]-N-(2,2,2-trifluoroethyl)benzamide]",ASMS ratio (%) n = 1,1.2%
same,ASMS ratio (%) n = 2,−0.3%
"CCOc1cncc(-c2cc(CN3CCN(c4ccc(C(=O)NCC(F)(F)F)cc4)CC3)cc(OC(F)(F)F)c2)c1 [B1K064-01, 4-[4-[[3-(5-Ethoxypyridin-3-yl)-5-(trifluoromethoxy)phenyl]methyl]piperazin-1-yl]-N-(2,2,2-trifluoroethyl)benzamide]",ASMS ratio (%) n = 1,1.4%
same,ASMS ratio (%) n = 2,0.7%
"CCOc1cccc(-c2ccc(CN3CCN(c4ccc(C(=O)NCC(F)(F)F)cc4)CC3)c3ccccc23)c1 [B1K065-01, 4-[4-[[4-(3-Ethoxyphenyl)naphthalen-1-yl]methyl]piperazin-1-yl]-N-(2,2,2-trifluoroethyl)benzamide]",ASMS ratio (%) n = 1,5.9%
same,ASMS ratio (%) n = 2,−5.6%
"CCOc1cncc(-c2ccc(CN3CCN(c4ccc(C(=O)NCC(F)(F)F)cc4)CC3)c3ccccc23)c1 [B1K066-01, 4-[4-[[4-(5-Ethoxypyridin-3-yl)naphthalen-1-yl]methyl]piperazin-1-yl]-N-(2,2,2-trifluoroethyl)benzamide]",ASMS ratio (%) n = 1,1.8%
same,ASMS ratio (%) n = 2,−0.7%

# Reference: patent US20240132431A1, “METHOD FOR ALKYLATING ACIDIC FUNCTIONAL GROUP” (Chugai Seiyaku Kabushiki Kaisha, priority 2021, published 2024)
